From PubChem BioAssay (NCI)
Values joined by “and” are separate entries in the source; they are usually repeats but may differ in a detail not shown here. Equal entries are not always repeated.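 Following 48 hours of exposure in 96-well plates, responses at five concentrations were used to interpolate endpoints linearly. Abbreviation: GI50, concentration required for 50% inhibition of growth. TGI marks complete inhibition of growth.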

How the values were obtained:
Assay in all cases: growth of human tumour cells (NCI), 48 h
CCRF-CEM leukemia = system: CCRF-CEM leukemia
COLO 205 colon = system: COLO 205 colon
HT29 colon = system: HT29 colon
M14 melanoma = system: M14 melanoma
NCI-H226 lung = system: NCI-H226 lung
NCI-H460 lung = system: NCI-H460 lung
NCI/ADR-RES ovarian = system: NCI/ADR-RES ovarian
RPMI-8226 leukemia = system: RPMI-8226 leukemia
RXF 393 renal = system: RXF 393 renal
T-47D breast = system: T-47D breast

Structure (SMILES)	TGI (CCRF-CEM leukemia)	TGI (COLO 205 colon)	TGI (HT29 colon)	TGI (M14 melanoma)	TGI (NCI-H226 lung)	TGI (NCI-H460 lung)	TGI (NCI/ADR-RES ovarian)	TGI (RPMI-8226 leukemia)	TGI (RXF 393 renal)	TGI (T-47D breast)	GI50 (CCRF-CEM leukemia)	GI50 (COLO 205 colon)	GI50 (HT29 colon)	GI50 (NCI-H226 lung)	GI50 (NCI-H460 lung)	GI50 (NCI/ADR-RES ovarian)	GI50 (RPMI-8226 leukemia)	GI50 (RXF 393 renal)	GI50 (M14 melanoma)	GI50 (T-47D breast)
O=C(NC1=C(Cl)C(=O)c2ccccc2C1=O)C(=O)c1c(O)c2ccccc2oc1=O	> 30.7 µM	17.9 µM	12.8 µM	4.4 µM	28.9 µM	7.68 µM	20 µM	30.3 µM	21.9 µM	23.5 µM										
Cc1c2oc(=O)c(C#N)cc2c2ccccn12	> 100 µM	> 100 µM	> 100 µM	> 100 µM	> 100 µM	> 100 µM	> 100 µM	> 100 µM	> 100 µM	> 100 µM										
COC(=O)[C@@H]1C=CCN1S(=O)(=O)c1ccc(C)cc1	72.1 µM	> 100 µM	> 100 µM	> 100 µM	> 100 µM	> 100 µM	> 100 µM	> 100 µM	> 100 µM	> 100 µM										
O=C(NNC(=O)c1ccc(Cl)cc1NC(=O)C12CC3CC(CC(C3)C1)C2)c1ccc(Cl)cc1	62.5 µM	27.6 µM	77 µM	57.6 µM	65.1 µM	66.3 µM	63.1 µM	38.4 µM	40.3 µM	> 100 µM										
Oc1ccc(Nc2nc(Cl)c3[nH]cnc3n2)cc1	> 100 µM	> 100 µM	> 100 µM	> 100 µM	> 100 µM	> 100 µM	> 100 µM	> 100 µM	> 100 µM	> 100 µM										
CC1=NN(c2ccccc2)C(=O)/C1=C\c1c(C)[nH]n(-c2ccccc2)c1=O	> 100 µM	> 100 µM	> 100 µM	> 100 µM	> 100 µM	> 100 µM	> 100 µM	83.3 µM	> 100 µM	> 100 µM										
Cc1oc(N)c(S(=O)(=O)/C(C#N)=C/c2ccccc2[N+](=O)[O-])c1C	68.5 µM	40.3 µM	35.1 µM	41.4 µM	> 100 µM	> 100 µM	> 100 µM	75.2 µM	52.8 µM	66.8 µM										
C(=Nc1ccc(-c2nc3ccccc3s2)cc1)c1cccs1	3.76 µM	> 100 µM	> 100 µM	> 100 µM	> 100 µM	> 100 µM	> 100 µM	> 100 µM	85.3 µM	> 100 µM										
CC(Cl)(CCC(Cl)C(C)(C)Cl)C(=O)CBr (stereo not drawn)	> 21.5 µM	18.4 µM	32.3 µM	21.8 µM	33.7 µM	32.3 µM	74.2 µM	7.99 µM	11.2 µM	50.7 µM										
CC(C)(C)c1cc(C(C)(C)C)c(SC2OC(CO)C(O)C(O)C2O)c(O)c1O (stereo not drawn)	> 34.7 µM	> 81.4 µM	24.5 µM	> 100 µM	36.7 µM	10.5 µM	34.3 µM	76.1 µM	14.1 µM	72.4 µM										
CCN(CC)CC[n+]1ccc2c(C)c3[nH]c4ccccc4c3c(C)c2c1	4.33 µM and 2.1 µM and 2.27 µM	0.525 µM and 0.878 µM and 1.55 µM	3.82 µM and 4.45 µM and 4.46 µM	3.28 µM	1.89 µM and 2.89 µM and 0.693 µM	2.31 µM and 2.16 µM and 1.01 µM	48.1 µM and 125 µM	4.87 µM and 0.536 µM and 2.95 µM	8.83 µM and 8.41 µM and 7.26 µM	1.19 µM	0.245 µM and 0.0957 µM	0.131 µM and 0.297 µM and 0.412 µM	0.416 µM	0.346 µM and 0.529 µM and 0.0944 µM	0.332 µM	27.2 µM and 43.6 µM and 87.6 µM	< 0.0471 µM	1.83 µM		
O=[N+]([O-])/C(Cl)=C(\NCCO)C(Cl)=C(Cl)Cl	52.1 µM	79.3 µM	> 100 µM	77.5 µM	> 100 µM	> 100 µM	> 77.9 µM	40.5 µM	> 96.3 µM	99.8 µM										
COC(=O)CCCc1nc2ccccc2nc1N=Nc1ccccc1	72.7 µM	31.2 µM	> 100 µM	76.7 µM	> 100 µM	> 100 µM	57.1 µM	98.8 µM	> 100 µM	> 100 µM										
C#CCn1c(I)cc2c(c1=O)COC(=O)[C@]2(O)CC	> 100 µM	> 100 µM	> 100 µM	> 100 µM	> 100 µM	> 100 µM	> 100 µM	> 100 µM	> 100 µM	> 100 µM										
Cc1cc(C)c(S(=O)(=O)N(CCCCCN)OCCCN)c(C)c1	45.6 µM	37.9 µM	27.9 µM	37 µM	29.9 µM	31.2 µM	34.3 µM	30.6 µM	24.8 µM	37.7 µM										
N#Cc1nc(CN2C(=O)c3ccccc3C2=O)oc1N	> 100 µM	> 100 µM	> 100 µM	> 100 µM	> 100 µM	> 100 µM	> 100 µM	> 100 µM	> 100 µM	> 100 µM										
Cc1cccc(NC(=S)Nc2cccc(Cl)c2)n1	> 100 µM	> 100 µM	> 100 µM	> 100 µM	> 100 µM	> 100 µM	> 100 µM	> 100 µM	> 100 µM	> 100 µM										
C/C(CC(O)(C(F)(F)F)C(F)(F)F)=N\O	> 10 µM	> 10 µM	> 10 µM	> 10 µM	> 10 µM	> 10 µM	> 10 µM	> 10 µM	> 10 µM	> 10 µM										
COC(=O)c1ccc(C)cc1C1CN=NC12Cc1cccc(C)c1C2=O (stereo not drawn)	92.8 µM	> 100 µM	> 100 µM	42.1 µM	73.6 µM	> 100 µM	67.1 µM	49.8 µM	> 100 µM	85.8 µM										
CNCC(SC)c1ccc(O)c(O)c1 (stereo not drawn)	7.33 µM	32.9 µM	99.5 µM	> 100 µM	> 100 µM	33.2 µM	> 100 µM	58.6 µM	> 100 µM	67 µM										
COC1OC(C)/C(=N/O)C2OC(C)(C)OC12 (stereo not drawn)	> 100 µM	> 100 µM	> 100 µM	> 100 µM	> 100 µM	> 100 µM	> 100 µM	> 100 µM	> 100 µM	> 100 µM										
O=C(NCc1cn(Cc2cccc(Oc3ccccc3)c2)nn1)c1cccnc1NCc1ccc(Cl)cc1	> 100 µM	4.04 µM	7.56 µM	5.7 µM	> 100 µM	7.83 µM	> 100 µM	> 100 µM	7.81 µM	42.9 µM	3.05 µM	2.18 µM	2.96 µM	4.23 µM	2.85 µM	2.86 µM	3.12 µM	2.19 µM	2.49 µM	3.2 µM
CC(C)(C)OC(=O)NCC(c1c[nH]c2ccccc12)c1c[nH]c2ccccc12	44.7 µM	29.1 µM	29.8 µM	29.1 µM	44 µM	30.1 µM	51.3 µM	22.2 µM	17.7 µM	36.5 µM										
COc1ccc(-c2csc3c2[N+]2(C)C=CC=C2C3N2CCCC2)cc1 (stereo not drawn)	> 100 µM	42.6 µM	43 µM	> 100 µM	26.5 µM	46.8 µM	63.7 µM	> 100 µM	> 100 µM	76.1 µM										
O=C(O)c1c(CC(Cc2ccccc2)C(=O)O)ccc2c1CCC2 (stereo not drawn)	> 100 µM	> 100 µM	> 100 µM		> 100 µM	> 100 µM	> 100 µM	> 100 µM	> 100 µM	> 100 µM										
CC1(C)Cc2ccccc2C(C)(Cl)C(=O)N1 (stereo not drawn)	> 10 µM	> 10 µM	> 10 µM	> 10 µM	> 10 µM	> 10 µM	> 10 µM	> 10 µM	> 10 µM	> 10 µM										
COc1ccc(N=C(C)C(C)=Nc2ccc(OC)cc2)cc1	> 100 µM	37.1 µM	> 100 µM	> 100 µM	> 100 µM	> 100 µM	> 100 µM	> 100 µM	> 100 µM	> 100 µM										
CN1CCC(O)(OC(=O)C(c2ccccc2)C2(O)CCCC2)CC1 (stereo not drawn)	> 100 µM	> 100 µM	> 100 µM	> 100 µM	> 100 µM	> 100 µM	> 100 µM	> 100 µM	> 100 µM	> 100 µM										
C#CC(O)/C=C/C(O)CCCC(O)CC#CC(O)C#CCCCCC(O)/C=C/CCCC(=O)CCCCCCCCCCCCCCCC(O)C(O)C#CC(=O)O (stereo not drawn)	> 25 µM	> 25 µM	> 25 µM	> 25 µM	> 25 µM	> 25 µM	> 25 µM	> 25 µM	> 25 µM	> 25 µM										
CC(C)=CC(=O)OC1C2C(C)=CC(=O)C(O)C2(C)C2C3(O)OCC24C(CC(=O)OC14)C(C)C3O (stereo not drawn)	0.109 µM and 0.177 µM and 0.253 µM	0.359 µM and 1.11 µM and 0.42 µM	0.0449 µM and 0.0146 µM and 0.137 µM	0.00826 µM		0.0298 µM and 0.0334 µM		0.028 µM and 0.0291 µM	0.0732 µM and 0.131 µM	0.0108 µM	0.02 µM	0.117 µM	0.0302 µM	0.02 µM	0.00788 µM	6.65 µM and 2.24 µM	0.02 µM	0.0339 µM		
